According to patent US8173645B2 (Takeda San Diego, Inc., priority 2007, dated 2012):

Molecular target: T1, glucokinase (GK), residues 12-465 of the human enzyme (Homo sapiens, UniProt P35557)
T1 construct: I.D. No. 1 corresponds to residues 12-465 of glucokinase; made in house; host or cells: E. coli DH10b-Tlr
T1 sequence (P35557 with tags, fused parts or gaps isoform P35557-2): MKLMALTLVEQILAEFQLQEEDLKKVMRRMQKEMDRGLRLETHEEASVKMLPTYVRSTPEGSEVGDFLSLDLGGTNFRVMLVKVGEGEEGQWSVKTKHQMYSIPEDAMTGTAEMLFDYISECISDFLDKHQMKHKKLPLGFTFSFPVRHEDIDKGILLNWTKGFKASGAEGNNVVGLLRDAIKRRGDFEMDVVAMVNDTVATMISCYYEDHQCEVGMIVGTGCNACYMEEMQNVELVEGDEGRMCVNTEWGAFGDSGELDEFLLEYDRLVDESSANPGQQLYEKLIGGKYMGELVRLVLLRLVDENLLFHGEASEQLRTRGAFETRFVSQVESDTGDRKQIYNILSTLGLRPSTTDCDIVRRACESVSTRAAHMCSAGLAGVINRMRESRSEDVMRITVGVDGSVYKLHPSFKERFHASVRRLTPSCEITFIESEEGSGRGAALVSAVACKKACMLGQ
Assay: Enzymatic glucokinase activity assay (KinaseGlo luminescence, ATP consumption)
Format: biochemical
Conditions: 5 μM ATP, 5 mM Glucose; for EC50: GK activation, Kact = concentration giving 50% of the maximal increase in GK activity, read-out: pKact; for Emax: calculated maximal gain in GK enzyme activity at a saturating concentration of the compound, read-out: % ACTmax
Outline: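 Activation measured as ATP consumption: residual ATP detected by KinaseGlo luminescence after 60 min at room temperature with 5 μM ATP and 5 mM glucose (Hepes pH 7.2, MgCl2, Brij35, DTT, 2% DMSO). Enzyme was recombinant FLAG-tagged protein from E. coli. Eleven-point twofold series were fitted nonlinearly for pKact and % ACTmax.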

Row | EC50 [nM] | Emax [%] | Compound
1 | ≤ 631 | ≥ 119 | O=C(Nc1nccs1)[C@H](CC1CCCCC1)N1CCN(S(=O)(=O)c2cccc(Cl)c2F)CC1=O [Example 188, (S)-2-(4-(3-chloro-2-fluorophenylsulfonyl)-2-oxopiperazin-1-yl)-3-cyclohexyl-N-(thiazol-2-yl)propanamide]
2 | 794 to 1260 | ≤ 74 | COc1cc(C)c(S(=O)(=O)N2CCN([C@@H](CC3CCCCC3)C(=O)Nc3nccs3)C(=O)C2)c(C)c1C [Example 182, (S)-3-cyclohexyl-2-(4-(4-methoxy-2,3,6-trimethylphenylsulfonyl)-2-oxopiperazin-1-yl)-N-(thiazol-2-yl)propanamide]
3 | 794 to 1260 | 97.1 to 107 | Cc1nccc(-c2cccc(S(=O)(=O)N3CCN([C@@H](CC4CCCCC4)C(=O)Nc4nccs4)C(=O)C3)c2)n1 [Example 169, (S)-3-cyclohexyl-2-(4-(3-(2-methylpyrimidin-4-yl)phenylsulfonyl)-2-oxopiperazin-1-yl)-N-(thiazol-2-yl)propanamide]
4 | 1580 to 2510 | 97.1 to 107 | O=C(Nc1nccs1)[C@H](CC1CCCCC1)N1CCN(C(=S)NCCCN2CCOCC2)CC1=O [Example 118, (S)-3-cyclohexyl-2-(4-(3-morpholinopropylcarbamothioyl)-2-oxopiperazin-1-yl)-N-(thiazol-2-yl)propanamide]
5 | ≤ 631 | 108 to 119 | Cc1ccc(S(=O)(=O)N2CCN([C@@H](CC3CCCCC3)C(=O)Nc3nccs3)C(=O)C2)c(F)c1 [Example 222, (S)-3-cyclohexyl-2-(4-(2-fluoro-4-methylphenylsulfonyl)-2-oxopiperazin-1-yl)-N-(thiazol-2-yl)propanamide]
6 | 794 to 1260 | 108 to 119 | COc1ccc(S(=O)(=O)N2CCN([C@@H](CC3CCCCC3)C(=O)Nc3nccs3)C(=O)C2)cc1F [Example 99, (S)-3-cyclohexyl-2-(4-(3-fluoro-4-methoxyphenylsulfonyl)-2-oxopiperazin-1-yl)-N-(thiazol-2-yl)propanamide]
7 | 1580 to 2510 | 74.1 to 97 | COc1ccc(CNC(=S)N2CCN([C@@H](CC3CCCCC3)C(=O)Nc3nccs3)C(=O)C2)cc1 [Example 122, (S)-3-cyclohexyl-2-(4-(4-methoxybenzylcarbamothioyl)-2-oxopiperazin-1-yl)-N-(thiazol-2-yl)propanamide]
8 | 794 to 1260 | ≤ 74 | O=C(Nc1nccs1)[C@H](CC1CCCCC1)N1CCN(S(=O)(=O)c2ccc(Cl)c(Cl)c2Cl)CC1=O [Example 220, (S)-3-cyclohexyl-2-(2-oxo-4-(2,3,4-trichlorophenylsulfonyl)piperazin-1-yl)-N-(thiazol-2-yl)propanamide]
9 | 794 to 1260 | 108 to 119 | O=C(c1ccncc1)c1cccc(S(=O)(=O)N2CCN([C@@H](CC3CCCCC3)C(=O)Nc3nccs3)C(=O)C2)c1 [Example 179, (S)-3-cyclohexyl-2-(4-(3-isonicotinoylphenylsulfonyl)-2-oxopiperazin-1-yl)-N-(thiazol-2-yl)propanamide]
10 | ≤ 631 | 74.1 to 97 | Cc1ccc([N+](=O)[O-])cc1S(=O)(=O)N1CCN([C@@H](CC2CCCCC2)C(=O)Nc2nccs2)C(=O)C1 [Example 199, (S)-3-cyclohexyl-2-(4-(2-methyl-5-nitrophenylsulfonyl)-2-oxopiperazin-1-yl)-N-(thiazol-2-yl)propanamide]
11 | 794 to 1260 | ≤ 74 | O=C(Nc1nccs1)[C@H](CC1CCCCC1)N1CCN(S(=O)(=O)c2ccc(-c3nsc(Cl)n3)s2)CC1=O [Example 165, (S)-2-(4-(5-(5-chloro-1,2,4-thiadiazol-3-yl)thiophen-2-ylsulfonyl)-2-oxopiperazin-1-yl)-3-cyclohexyl-N-(thiazol-2-yl)propanamide]
12 | 1580 to 2510 | 74.1 to 97 | O=C(Nc1nccs1)[C@H](CC1CCCCC1)N1CCN(S(=O)(=O)c2ccc(OC(F)F)cc2)CC1=O [Example 70, (S)-3-cyclohexyl-2-(4-(4-(difluoromethoxy)phenylsulfonyl)-2-oxopiperazin-1-yl)-N-(thiazol-2-yl)propanamide]
13 | 794 to 1260 | 108 to 119 | Cc1nc(S(=O)(=O)N2CCN([C@@H](CC3CCCCC3)C(=O)Nc3nccs3)C(=O)C2)cn1C [Example 48, (S)-3-cyclohexyl-2-(4-(1,2-dimethyl-1H-imidazol-4-ylsulfonyl)-2-oxopiperazin-1-yl)-N-(thiazol-2-yl)propanamide]
14 | ≥ 3160 | ≤ 74 | O=C(Nc1nccs1)[C@H](CC1CCCCC1)N1CCN(C(=O)Nc2ccc(C(F)(F)F)cc2)CC1=O [Example 142, (S)-4-(3-cyclohexyl-1-oxo-1-(thiazol-2-ylamino)propan-2-yl)-3-oxo-N-(4-(trifluoromethyl)phenyl)piperazine-1-carboxamide]
15 | 794 to 1260 | 74.1 to 97 | O=C(Nc1nccs1)[C@H](CC1CCCCC1)N1CCN(S(=O)(=O)c2ccc3c(c2)OCCO3)CC1=O [Example 53, (S)-3-cyclohexyl-2-(4-(2,3-dihydrobenzo[b][1,4]dioxin-6-ylsulfonyl)-2-oxopiperazin-1-yl)-N-(thiazol-2-yl)propanamide]
16 | 1580 to 2510 | 97.1 to 107 | Cc1nn(C)c(Cl)c1S(=O)(=O)N1CCN([C@@H](CC2CCCCC2)C(=O)Nc2nccs2)C(=O)C1 [Example 47, (S)-2-(4-(5-chloro-1,3-dimethyl-1H-pyrazol-4-ylsulfonyl)-2-oxopiperazin-1-yl)-3-cyclohexyl-N-(thiazol-2-yl)propanamide]
17 | ≤ 631 | 74.1 to 97 | Cc1c(Cl)cc(F)cc1S(=O)(=O)N1CCN([C@@H](CC2CCCCC2)C(=O)Nc2nccs2)C(=O)C1 [Example 187, (S)-2-(4-(3-chloro-5-fluoro-2-methylphenylsulfonyl)-2-oxopiperazin-1-yl)-3-cyclohexyl-N-(thiazol-2-yl)propanamide]
18 | 794 to 1260 | 108 to 119 | N#Cc1cccc(S(=O)(=O)N2CCN([C@@H](CC3CCCCC3)C(=O)Nc3nccs3)C(=O)C2)c1 [Example 62, (S)-2-(4-(3-cyanophenylsulfonyl)-2-oxopiperazin-1-yl)-3-cyclohexyl-N-(thiazol-2-yl)propanamide]
19 | 1580 to 2510 | 108 to 119 | O=C(Nc1nccs1)[C@H](CC1CCCCC1)N1CCN(C(=S)NCc2ccccc2)CC1=O [Example 82, (S)-2-(4-(benzylcarbamothioyl)-2-oxopiperazin-1-yl)-3-cyclohexyl-N-(thiazol-2-yl)propanamide]
20 | 794 to 1260 | 108 to 119 | Cc1ccc(S(=O)(=O)N2CCN([C@@H](CC3CCCCC3)C(=O)Nc3nccs3)C(=O)C2)cc1Cl [Example 94, (S)-2-(4-(3-chloro-4-methylphenylsulfonyl)-2-oxopiperazin-1-yl)-3-cyclohexyl-N-(thiazol-2-yl)propanamide]
21 | ≤ 631 | 97.1 to 107 | O=C(Nc1nccs1)[C@H](CC1CCCCC1)N1CCN(S(=O)(=O)c2cc(F)cc(F)c2)CC1=O [Example 105, (S)-3-cyclohexyl-2-(4-(3,5-difluorophenylsulfonyl)-2-oxopiperazin-1-yl)-N-(thiazol-2-yl)propanamide]
22 | ≥ 3160 | ≥ 119 | N#Cc1cccc(NC(=S)N2CCN([C@@H](CC3CCCCC3)C(=O)Nc3nccs3)C(=O)C2)c1 [Example 116, (S)-2-(4-(3-cyanophenylcarbamothioyl)-2-oxopiperazin-1-yl)-3-cyclohexyl-N-(thiazol-2-yl)propanamide]
23 | ≤ 631 | 108 to 119 | O=C(Nc1nccs1)[C@H](CC1CCCCC1)N1CCN(S(=O)(=O)c2cccc(Cl)c2)CC1=O [Example 67, (S)-2-(4-(3-chlorophenylsulfonyl)-2-oxopiperazin-1-yl)-3-cyclohexyl-N-(thiazol-2-yl)propanamide]
24 | 794 to 1260 | ≤ 74 | O=C(Nc1nccs1)[C@H](CC1CCCCC1)N1CCN(S(=O)(=O)c2ccc3ccccc3c2)CC1=O [Example 39, (S)-3-cyclohexyl-2-(4-(naphthalen-2-ylsulfonyl)-2-oxopiperazin-1-yl)-N-(thiazol-2-yl)propanamide]
25 | ≥ 3160 | ≥ 119 | COc1ccc(CCNC(=O)N2CCN([C@@H](CC3CCCCC3)C(=O)Nc3nccs3)C(=O)C2)cc1OC [Example 143, (S)-4-(3-cyclohexyl-1-oxo-1-(thiazol-2-ylamino)propan-2-yl)-N-(3,4-dimethoxyphenethyl)-3-oxopiperazine-1-carboxamide]
26 | 794 to 1260 | ≤ 74 | Cc1oncc1S(=O)(=O)N1CCN([C@@H](CC2CCCCC2)C(=O)Nc2nccs2)C(=O)C1 [Example 60, (S)-3-cyclohexyl-2-(4-(5-methylisoxazol-4-ylsulfonyl)-2-oxopiperazin-1-yl)-N-(thiazol-2-yl)propanamide]
27 | ≤ 631 | 97.1 to 107 | O=C(Nc1nccs1)[C@H](CC1CCCCC1)N1CCN(S(=O)(=O)Cc2ccccc2)CC1=O [Example 41, (S)-2-(4-(benzylsulfonyl)-2-oxopiperazin-1-yl)-3-cyclohexyl-N-(thiazol-2-yl)propanamide]
